According to patent US4260599A, “Antifibrotic substance P-1894B” (Takeda Chemical Industries, Ltd., priority 1978, dated 1981):

Tests used:
[1] = system: collagen biosynthesis (uterus); experiment: Collagen biosynthesis inhibiting activity in uteri of 17β-estradiol-treated rats; format: in vivo, Sprague-Dawley rats
Protocol: (§1) Basically in accordance with a procedure described by R. A. Salvador et al [Arch. Biochem. Biophys. 174, 382 (1976)], 0.3 mg/kg was intraperitoneally administered to Sprague-Dawley rats (female, 3 weeks old) once daily for 6 days and the amounts of collagen and non-collagenous proteins in the uteri were compared with the figures for control.

Solubility = format: physicochemical
[2] = biological target: T1, protocollagen proline hydroxylase (Gallus gallus, UniProt P16924); experiment: Protocollagen proline hydroxylase inhibitor activity; format: biochemical; details: partially purified enzyme from chick embryos; substrate (Pro-Pro-Gly)5.4H2O
T1 construct: partially purified enzyme preparation obtained from chick embryos; from tissue; host or cells: chick embryos
T1 sequence (P16924 1-516): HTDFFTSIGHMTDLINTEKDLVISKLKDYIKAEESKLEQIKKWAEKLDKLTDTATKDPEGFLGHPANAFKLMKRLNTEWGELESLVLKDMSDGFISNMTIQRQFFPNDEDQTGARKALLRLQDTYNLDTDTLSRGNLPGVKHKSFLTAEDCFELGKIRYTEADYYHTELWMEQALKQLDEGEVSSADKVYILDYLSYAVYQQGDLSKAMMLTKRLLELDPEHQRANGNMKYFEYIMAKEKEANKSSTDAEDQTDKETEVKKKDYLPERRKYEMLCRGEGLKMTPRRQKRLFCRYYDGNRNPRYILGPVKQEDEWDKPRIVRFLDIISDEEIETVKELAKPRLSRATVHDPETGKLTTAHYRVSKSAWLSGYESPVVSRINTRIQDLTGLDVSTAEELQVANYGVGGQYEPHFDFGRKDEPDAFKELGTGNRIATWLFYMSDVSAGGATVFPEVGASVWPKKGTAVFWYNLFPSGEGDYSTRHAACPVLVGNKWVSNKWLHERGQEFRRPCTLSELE
T1 sequence (P09102 23-515 partner): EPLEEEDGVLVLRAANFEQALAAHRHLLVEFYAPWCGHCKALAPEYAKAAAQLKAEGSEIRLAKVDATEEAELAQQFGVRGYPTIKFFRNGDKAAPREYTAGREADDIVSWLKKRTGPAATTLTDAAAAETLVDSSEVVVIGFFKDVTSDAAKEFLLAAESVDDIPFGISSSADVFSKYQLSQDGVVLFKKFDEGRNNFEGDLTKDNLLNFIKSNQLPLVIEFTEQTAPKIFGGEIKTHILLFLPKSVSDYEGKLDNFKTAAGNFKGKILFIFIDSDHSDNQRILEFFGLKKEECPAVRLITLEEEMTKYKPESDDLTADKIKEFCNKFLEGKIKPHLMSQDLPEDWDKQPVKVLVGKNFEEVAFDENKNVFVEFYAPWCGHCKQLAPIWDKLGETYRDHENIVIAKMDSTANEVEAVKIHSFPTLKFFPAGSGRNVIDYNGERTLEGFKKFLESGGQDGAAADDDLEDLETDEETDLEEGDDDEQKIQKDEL

[3] = Carbon tetrachloride-induced hepatic cirrhosis: body weight; format: in vivo, Sprague-Dawley rats; details: 4 weeks
Protocol: (§2) Female Sprangue-Dawley rats weighing approximately 110 g each were divided into 4 groups. Group I (control) received saline (1 ml/rat) and Groups II, III and IV received 10% CCl4 -olive oil mixture (1 ml/rat) intraperitoneally twice weekly for a total 8 doses. Groups III and IV received P-1894B orally with food for 4 weeks. Average doses of P-1894B in Groups III and IV were 3.25 and 6.16 mg/kg/day, respectively. The rats were sacrificed a day after the last injection and the livers were immediately removed for the assays.

pKa by titrimetry = format: physicochemical; details: in 66.7% aqueous DMF
[4] = system: protocollagen proline hydroxylase; experiment: Carbon tetrachloride-induced hepatic cirrhosis: protocollagen proline hydroxylase activity in the liver; format: in vivo, Sprague-Dawley rats; details: for Protocollagen proline hydroxylase: liver, 4 weeks, CCl4 group 504 ± 87
Protocol: as §2
A 10% homogenate of the liver was prepared in 20 mM Tris-HCl buffer, pH 7.5, containing 0.2 M NaCl, 0.1 M glycine, 5×10^-5 M 1,4-dithiothreitol and 0.1% Triton (polyethylene glycol p-isooctylphenyl ether) X-100 using a Polytron homogenizer. The homogenate was centrifuged at 15,000 g for 20 min and the clear supernatant was assayed for proline hydroxylase activity by the method of Hutton et al [Anal. Biochem. 16, 384-394 (1966)]. The protein content of the homogenate was measured by the method of Lowry et al [J. Biol. Chem. 193, 265-275 (1951)] using bovine serum albumin as the standard.

[5] = Body weight of rats in the uterus collagen test; format: in vivo, Sprague-Dawley rats; details: 0.3 mg/kg i.p. once daily for 6 days + 17β-estradiol (5 μg); groups of 4 rats
Protocol: as §1

[6] = system: hydroxyproline content of the liver (collagen biosynthesis); experiment: Carbon tetrachloride-induced hepatic cirrhosis: hydroxyproline content of the liver; format: in vivo, Sprague-Dawley rats; details: for Hydroxyproline: liver, 4 weeks, CCl4 group 145.8 ± 18.3
Protocol: as §2
Hydroxyproline content of the liver was measured in 6 N HCl hydrolysate (110° C., 22h) by the method of Blumenkrantz et al [Anal. Biochem. 63, 331-340 (1975)].

[7] = 0.3 mg/kg i.p. once daily for 6 days + 17β-estradiol (5 μg)
[8] = 6.16 mg/kg/day, p.o., compared to livers of CCl4-fibrotic rats
[9] = CCl4 + P-1894B 3.25 mg/kg/day orally with food
[10] = CCl4 + P-1894B 6.16 mg/kg/day orally with food, P<0.05 vs CCl4, n=5

C[C@@H]1O[C@@H](O[C@H]2CC[C@H](O[C@H]3[C@H](O)C[C@H](c4ccc5c(c4O)C(=O)C4=C(C5=O)[C@@]5(O)C(=O)C[C@](C)(O[C@H]6CC[C@H](O[C@H]7C=CC(=O)[C@H](C)O7)[C@H](C)O6)C[C@@]5(O)C=C4)O[C@@H]3C)O[C@H]2C)C=CC1=O [P-1894B]
inhibition of the biosynthesis of collagen (in words) ([1]; 0.3 mg/kg i.p. once daily for 6 days): inhibited the biosynthesis of collagen specifically and significantly
% Inhibition, Collagen [1, 7]: 78%
% Inhibition, Non-collagenous protein [1, 7]: -21%
Non-collagenous protein in uterus ([1]; 0.3 mg/kg i.p. once daily for 6 days + 17β-estradiol (5 μg), = total protein - collagen, control (2) 24.21 ± 7.21): 26.99 ± 4.67 mg
Collagen in uterus ([1]; 0.3 mg/kg i.p. once daily for 6 days + 17β-estradiol (5 μg), groups of 4 rats, control (2) 4.39 ± 0.16, p < 0.01 vs control (2)): 3.41 ± 0.22 mg
Total protein of uterus ([1]; 0.3 mg/kg i.p. once daily for 6 days + 17β-estradiol (5 μg), groups of 4 rats, control (2) 28.6 ± 7.3): 30.4 ± 5.0 mg
Solubility (Solubility; in chloroform, dioxane, ethyl acetate, dimethylsulfoxide, acetone, methyl ethyl ketone, pyridine, methanol, ethanol, benzene, toluene, diethyl ether and 0.1 N NaOH): Readily soluble or soluble
Solubility (Solubility; in petroleum ether, n-hexane and cyclohexane): sparingly soluble or insoluble
concentration required for a 50% inhibition of 100 μg (as protein) of partially purified enzyme [2]: about 7 μg/ml
weight, final ([3]; CCl4 + P-1894B 3.25 mg/kg/day orally with food, initial 112 ± 9): 199 ± 19 g
weight, final ([3]; CCl4 + P-1894B 6.16 mg/kg/day orally with food, initial 111 ± 5): 198 ± 9 g
PKa (pKa by titrimetry): 10.15
specific activity of protocollagen proline hydroxylase in the liver (in words) [4, 8]: significantly decreased
Protocollagen proline hydroxylase [4, 9]: 457 ± 68 dpm/mg of protein
Protocollagen proline hydroxylase [4, 10]: 357 ± 15 dpm/mg of protein
Body weight of rats [5]: 72 ± 5 g
hydroxyproline content in the liver (in words) [6, 8]: significantly decreased
Hydroxyproline [6, 9]: 132.4 ± 29.6 μg/100 mg of protein
Hydroxyproline [6, 10]: 122.6 ± 14.0 μg/100 mg of protein
